Columns and labels:
B. divergens = tested on: B. divergens; parameters: method as in PMID 30103207; conditions: bovine erythrocyte cultures, cited from earlier work
β1 subunit of Bd20S = test: Fluorogenic kinetic assay of enriched Bd20S with PA28α and the β1 substrate Ac-nPnD-amc (50 mM HEPES pH 7.5, 1 mM DTT), no preincubation stated, rate of amc release read between 60 and 90 min, 8 µL volume.; assay type: biochemical; conditions: n = 3
Description: (§1) To assess the enzyme activity, 8 ng of purified preparation was preincubated with 0 to 4000 nM recombinant human PA28α for 1 h at room temperature (RT). The enzyme activity was then assayed with 50 μM Suc-LLVY-amc in 50 mM HEPES, pH 7.5, and 1 mM DTT in the presence of 250 nM PA28α. To evaluate the substrate specificity for β5, β2, and β1 subunits, a set of available proteasome substrates was screened that included Suc-LLVY-amc, Z-VLR-amc and Z-LLE-amc, Ac-FnKL-amc, Ac-nPnD-amc, Ac-RYFD-amc, Ac-FRSR-amc, and Ac-GWYL-amc. Bd20S was initially activated with PA28α and the rate of release of 7-amino-4-methyl coumarin (amc) was quantified over time following addition of the substrates. For control, 6 μM marizomib (MZB, MedChemExpress) was used to ensure substrate cleavage by proteasome. For inhibition studies, IC50 values were measured using presteady-state enzyme kinetics. Five or 100 nL of inhibitor at concentrations ranging from 10 mM to 170 nM was dispensed using the ECHO 650 liquid handler (Beckman). Subsequently, 4 μL of 100 μM substrate was added, followed by 4 μL of Bd20S, and the release of amc was immediately measured. The IC50 values were calculated from the fluorescence units per second (RFU/s) recorded between 60 and 90 min after the reaction. […] Data were analyzed and plotted using GraphPad software.

β2 subunit of Bd20S = test: Fluorogenic kinetic assay of enriched Bd20S with PA28α and the β2 substrate Z-VLR-amc (50 mM HEPES pH 7.5, 1 mM DTT), no preincubation stated, rate of amc release read between 60 and 90 min, 8 µL volume.; assay type: biochemical; conditions: n = 3
Description: as §1

β5 subunit of Bd20S = test: Fluorogenic kinetic assay of enriched Bd20S with PA28α and the β5 substrate Ac-FnKL-amc (50 mM HEPES pH 7.5, 1 mM DTT), no preincubation stated, rate of amc release read between 60 and 90 min, 8 µL volume.; assay type: biochemical; conditions: n = 3
Description: as §1

[1] = tested on: B. divergens proteasome β5 subunit; assay type: biochemical, Babesia divergens; conditions: Suc-LLVY-amc; for proteasome activity relative to activity with PA28α: Buffer B
Description: (§2) B. divergens and B. microti protein lysates were prepared from infected red blood cells. Briefly, red blood cells were lysed with 0.15% saponin prepared in 1× Phosphate-Buffered Saline (PBS), pH 7.5, to release intact parasites. Parasites were washed with 1× PBS, pH 7.5 (PBS), by centrifugation and the pellets were stored at −80 °C in PBS plus 20% glycerol. To prepare protein lysates for enzymatic assays, parasites were thawed and transferred to 50 mM HEPES (pH 7.5), 10 μM E64, 100 μM AESBF, 1 μM Pepstatin A, and 1 mM DTT (all Sigma-Aldrich). Cells were ruptured by ultrasonication with an amplitude of 0.5 for 3 cycles of 15 s on ice. To prepare protein lysates for activity-based probing and proteasome purification, parasites were thawed and transferred to 20 mM Tris-HCl, pH 7.5, 1 mM DTT, 10 μM E64, and 5% glycerol. The lysate was sonicated on ice for 3 times and clarified by centrifugation at 17,000g for 10 min at 4 °C.
To further improve the detection of the β5 subunit activity with the Suc-LLVY-amc substrate of the Babesia proteasome as previously published,[27] we aimed to further optimize assay conditions. However, to reduce the number of experimental animals in the study, assay conditions were optimized using protein lysates of B. divergens, which can be grown in vitro, instead of B. microti lysates, which need to be maintained in mice. […] Assay conditions were optimized in 50 μL volumes in round-bottom 96-well plates. Two assay buffers were evaluated. Buffer A, as described previously,[27] consists of 20 mM HEPES, pH 8, 1 mM ATP, and 1 μM E64, while Buffer B consists of 50 mM HEPES, pH 7.5, 5 mM ATP, 10 μM E64, 100 μM AESBF, 1 μM Pepstatin A, and 1 mM DTT. Buffers A and B were tested with either 0.02% SDS or 6.67 ng of PA28 as activators of the proteasome activity. […] The release of the AMC fluorophore was monitored at 37 °C in a Synergy HTX multimode reader (BioTek) with excitation and emission wavelengths set to 340 and 460 nm, respectively.
Proteasome activity in B. microti and B. divergens lysates was screened in the presence of carmaphycin B (CPB) and numerous analogs that were previously designed to target the P. falciparum 20S proteasome.[30] A pool of lysates was made for each species to ensure that equal amounts of the lysates were used in each inhibition reaction. Inhibitors were transferred to black 384-well plates with the ATS acoustic transfer system (ATS-100, Biosera). Lysates were incubated with inhibitors for 30 min at room temperature and activity was assayed in 30 μL reactions. Each reaction mixture contained 5 μL of Babesia lysate, 10 nL of the inhibitor (final concentration of 133.33 nM), and 25 μL of assay buffer with 25 μM substrate succinyl-Leu-Leu-Val-Tyr-7-amido-4-methylcoumarin (Suc-LLVY-amc). The release of the AMC fluorophore was monitored at 37 °C in a Synergy HTX multimode reader (BioTek Instruments, Winooski, VT) with excitation and emission wavelengths set to 340 and 460 nm, respectively. Activity was quantified as RFU per second and normalized to the DMSO control reactions.

[2] = tested on: B. microti proteasome β5 subunit; test: β5 proteasome activity in B. microti lysates (Suc-LLVY-amc); assay type: biochemical, Babesia microti; conditions: 133.33 nM inhibitor, relative to DMSO
Description: as §2
To further improve the detection of the β5 subunit activity with the Suc-LLVY-amc substrate of the Babesia proteasome as previously published,[27] we aimed to further optimize assay conditions. However, to reduce the number of experimental animals in the study, assay conditions were optimized using protein lysates of B. divergens, which can be grown in vitro, instead of B. microti lysates, which need to be maintained in mice. […] Two assay buffers were evaluated. […] The release of the AMC fluorophore was monitored at 37 °C in a Synergy HTX multimode reader (BioTek) with excitation and emission wavelengths set to 340 and 460 nm, respectively.
Proteasome activity in B. microti and B. divergens lysates was screened in the presence of carmaphycin B (CPB) and numerous analogs that were previously designed to target the P. falciparum 20S proteasome.[30] […] The release of the AMC fluorophore was monitored at 37 °C in a Synergy HTX multimode reader (BioTek Instruments, Winooski, VT) with excitation and emission wavelengths set to 340 and 460 nm, respectively. Activity was quantified as RFU per second and normalized to the DMSO control reactions.

[3] = tested on: endogenous polyubiquitinated proteins in B. divergens; test: Western blot of polyubiquitinated proteins in treated B. divergens cultures; assay type: cell-based, Babesia divergens; conditions: 200 nM, 24 h, anti-Ubiquitin K48 western blot, vs 0.1% DMSO
Description: To assess the on-target effect of proteasome inhibition, protein lysates of B. divergens isolated from bovine erythrocyte cultures were evaluated for the accumulation of polyubiquitinated proteins. The B. divergens cultures underwent two 12 h treatments (totaling 24 h) with 200 nM of the inhibitor in culture medium. Parasites were released from RBCs and protein lysates were prepared as described above. The resulting samples were then centrifuged at 15,000g for 15 min at 4 °C and protein concentrations of the resulting supernatant were determined using Bradford assay.[29] Samples were prepared for SDS-PAGE in reducing Laemmli buffer supplemented with β-mercaptoethanol. Ten micrograms of protein was applied per lane and proteins were separated on gradient (4–15%) Criterion TGX Stain-Free Precast gels (BioRad) in Tris-Glycine-SDS running buffer (25 mM Tris, 192 mM glycine, and 0.1% (w/vol) SDS, pH 8.3) and visualized using TGX stain-free chemistry (BioRad). […] After washing (3 × 10 min) in PBS-T, signals were detected using Clarity Max Western ECL substrate (BioRad), visualized using a ChemiDoc MP imager, analyzed, and adjusted using the ImageLab freeware (BioRad).

[4] = tested on: catalytic subunits of Bd20S; test: Activity-based probe labeling (Me4BodipyFL-Ahx3Leu3VS) of Bd20S catalytic subunits; assay type: binding, Babesia divergens; conditions: lysates from CFZ- and CPB-treated cells, vs vehicle
Bd20S = test: Fluorogenic substrate screen with Bd20S/PA28α with and without marizomib; assay type: biochemical, Babesia divergens; conditions: 6 μM MZB
Description: as §1

In the case of `COc1ccc(C[C@H](NC(=O)[C@H](C)NC(=O)CN2CCOCC2)C(=O)N[C@@H](Cc2ccccc2)C(=O)C2(C)CO2)cc1` (stereo in doubt) [ONX-0914], the “concentration range significantly reducing B. divergens growth” value (B. divergens) is given as 25 to 200 nM.

With `CCCCCC(=O)N[C@H](C(=O)N[C@@H](CCS(C)(=O)=O)C(=O)N[C@@H](CC(C)C)C(=O)[C@@]1(C)CO1)C(C)C` [CPB, carmaphycin B] the IC50 (β1 subunit of Bd20S) was greater than 3000 nM, the IC50 (β2 subunit of Bd20S) was 34.3 nM and the IC50 (β5 subunit of Bd20S) was 27.9 nM.

With `CC(C)C[C@H](NC(=O)[C@H](CCc1ccccc1)NC(=O)CN1CCOCC1)C(=O)N[C@@H](Cc1ccccc1)C(=O)N[C@@H](CC(C)C)C(=O)[C@@]1(C)CO1` [carfilzomib] the “inhibition of β5 activity in B. divergens lysate (in words)” value ([1]; 133.33 nM inhibitor, relative to DMSO) was “completely inactivate”, the “decrease of enzyme activity” value ([1]; B. divergens lysate, with PA28α) was greater than 95% and the “inhibition of β5 activity in B. microti lysate (in words)” value [2] was “inhibited”. The “accumulation of endogenous polyubiquitinated proteins” value [3] was “marked accumulation”, the “labeling of catalytic subunits by activity-based probe” value [4] was “significantly reduced” and the “concentration range significantly reducing B. divergens growth” value (B. divergens) was 25 to 200 nM. The EC50 (B. divergens; read-out: EC50 B. divergens growth) was 29 nM.

In the case of `CC[C@H](C)[C@H](NC(=O)[C@H]([C@@H](C)CC)N(C)C(C)=O)C(=O)N[C@H](C(=O)N[C@@H](CC(C)C)C(=O)[C@@]1(C)CO1)[C@@H](C)O` [epoxomicin], the “concentration range significantly reducing B. divergens growth” value (B. divergens) is given as 25 to 200 nM.

For `C[C@@]12OC(=O)[C@]1([C@@H](O)[C@@H]1C=CCCC1)NC(=O)[C@@H]2CCCl` [marizomib], the “activity with all fluorogenic substrates in presence of inhibitor” value (Bd20S) was “eliminated”.

With “PA28α: recombinant human proteasome activator PA28α (Uniprot Q06323)” the “increase of enzyme activity by activator” value ([1]; B. divergens lysate, compared with SDS) was 3 fold.

In the case of “PA28β: human proteasome activator subunit PA28β (BioTechne #E-382)”, the “proteasome activity relative to activity with PA28α” value ([1]; B. divergens lysate) is reported as 14.41%.

For “PA28γ: human proteasome activator subunit PA28γ (BioTechne #E-384)”, the “proteasome activity relative to activity with PA28α” value ([1]; B. divergens lysate) was 12.83%.
